Assay results as given in patent publication US10933062B2, “Analgesic therapeutic and method, 1-(3-4(((1 R,3S,5S)-adamantan-1-yl)(phenyl)methyl)propyl)-4-methylpiperazine and salts thereof” (ANAVEX LIFE SCIENCES CORP., priority 2016, dated 2021).
Where “and” joins values, the source holds several entries; their conditions need not be identical. Equal entries are not always repeated.

Columns and labels:
[1] = test system: model of peripheral mononeuropathy (Bennett model) in rats; assay: Chronic constriction injury (Bennett model) of peripheral mononeuropathy, paw pressure test; assay type: in vivo
[2] = test system: patients with nociceptive or neuropathic pain; assay: Patient examples 1-5: oral AV1066, patient-reported pain control; assay type: in vivo, human; conditions: Example 1, bone fracture pain (nociceptive), oral 5 mg/kg/day, days 3, 7, 16, 28
Protocol: A patient or subject (the terms are used interchangeably) presents with a fractured collar bone arising from a bicycling accident. They are complaining of significant shoulder pain. The patient's pain is classified according to the
International Association for the Study of Pain as nociceptive. They are orally administered AV1066 5 mg/kg/day. They are examined at days 3, 7, 16, and 28. At each visit the patient is assessed for pain control compared with the previous visit.
A patient presents with a second […]. They are complaining of significant pain. The patient's pain is classified according to the International Association for the Study of Pain as nociceptive. They are orally administered the phosphate salt of AV1066 10 mg/kg daily in two doses. They are examined at 12 hours, and daily thereafter for 4 days. At each visit the patient is assessed for pain control compared with the previous visit.
A patient presents with a benign tumor mass compressing their left shoulder causing movement pain. The patient's pain is classified according to the International Association for the Study of Pain as nociceptive. They are orally administered the sodium salt of AV1066 30 mg/kg/day in two doses. They are examined daily thereafter at 3, 7, and 28 days. At each visit the patient is assessed for pain control compared with the previous visit. […]

[3] = test system: model of TNBS-induced chronic colonic hypersensitivity in rats; assay: TNBS-induced chronic colonic hypersensitivity, colorectal balloon distension threshold; conditions: for % antihypersensitivity activity / Colonic distension threshold (mmHg): TNBS 50 mg/kg
[4] = test system: model of peripheral mononeuropathy (Bennett model) in rats; conditions: typical values given for comparison; cited from earlier work
[5] = injured paw, TO (pre-drug), 10 mg/kg p.o.
[6] = injured paw, TO (pre-drug), 30 mg/kg p.o.
[7] = injured paw, TO (pre-drug), 100 mg/kg p.o.
[8] = injured paw, TO + 30 min, 10 mg/kg p.o.
[9] = injured paw, TO + 30 min, 30 mg/kg p.o.
[10] = injured paw, TO + 30 min, 100 mg/kg p.o.
[11] = injured paw, TO + 60 min, 10 mg/kg p.o.
[12] = injured paw, TO + 60 min, 30 mg/kg p.o.
[13] = injured paw, TO + 60 min, 100 mg/kg p.o.
[14] = injured paw, TO + 120 min, 10 mg/kg p.o.
[15] = injured paw, TO + 120 min, 30 mg/kg p.o.
[16] = injured paw, TO + 120 min, 100 mg/kg p.o.
[17] = injured paw, TO + 180 min, 10 mg/kg p.o.
[18] = injured paw, TO + 180 min, 30 mg/kg p.o.
[19] = injured paw, TO + 180 min, 100 mg/kg p.o.
[20] = single administration 10, 30, 100 mg/kg PO
[21] = injured paw, TO (pre-drug), 3 mg/kg s.c.
[22] = injured paw, TO + 30 min, 3 mg/kg s.c.
[23] = injured paw, TO + 60 min, 3 mg/kg s.c.
[24] = injured paw, TO + 120 min, 3 mg/kg s.c.
[25] = injured paw, TO + 180 min, 3 mg/kg s.c.

## CN1CCN(CCCc2ccc(C(c3ccccc3)C34CC5CC(CC(C5)C3)C4)cc2)CC1 [AV1066, 1-(3-4(((1R,3S,5S)-adamantan-1-yl)(phenyl)methyl)propyl)-4-methylpiperazine]
[1]; 30 mg/kg dose, T=+30 minutes
  difference in the nociceptive threshold vs. vehicle: 116 g
[1]; 30 mg/kg dose, T=+30 minutes, vs vehicle
  anti-hyperalgesic effect: 59%
[1]; CCI study, 10, 30, 100 mg/kg PO
  untoward effects: No untoward effects
[1]; control paw, TO, 10 mg/kg p.o.
  Nociceptive threshold: 366 ± 11.9 g
[1]; control paw, TO, 30 mg/kg p.o.
  Nociceptive threshold: 352 ± 15.8 g
[1]; control paw, TO, 100 mg/kg p.o.
  Nociceptive threshold: 354 ± 9.9 g
[1]; [5]
  % variation vs control paw: −54%
  % variation vs vehicle-treated group: −15%
  Nociceptive threshold: 170 ± 11.6 g
[1]; [6]
  % variation vs control paw: −45%
  % variation vs vehicle-treated group: −4%
  Nociceptive threshold: 192 ± 8.5 g
[1]; [7]
  % variation vs control paw: −49%
  % variation vs vehicle-treated group: −9%
  Nociceptive threshold: 182 ± 9.6 g
[1]; [8]
  % variation vs control paw: −32%
  % variation vs pre-drug threshold: 38%
  % variation vs vehicle-treated group: 19%
  Nociceptive threshold: 234 ± 11.2 g
[1]; [9]
  % variation vs control paw: −19%
  % variation vs pre-drug threshold: 63%
  % variation vs vehicle-treated group: 59%
[1]; injured paw, TO + 30 min, 30 mg/kg p.o., 30 mg/kg
  Nociceptive threshold: 312 g and 312 ± 15.5 g
[1]; [10]
  % variation vs control paw: −20%
  % variation vs pre-drug threshold: 64%
  % variation vs vehicle-treated group: 52%
  Nociceptive threshold: 298 ± 21.4 g
[1]; [11]
  % variation vs control paw: −29%
  % variation vs pre-drug threshold: 39%
  % variation vs vehicle-treated group: 6%
  Nociceptive threshold: 236 ± 11.5 g
[1]; [12]
  % variation vs control paw: −16%
  % variation vs pre-drug threshold: 43%
  % variation vs vehicle-treated group: 23%
  Nociceptive threshold: 274 ± 14.3 g
[1]; [13]
  % variation vs control paw: −11%
  % variation vs pre-drug threshold: 60%
  % variation vs vehicle-treated group: 32%
  Nociceptive threshold: 292 ± 17.2 g
[1]; [14]
  % variation vs control paw: −30%
  % variation vs pm-drug threshold: 27%
  % variation vs vehicle-treated group: 6%
  Nociceptive threshold: 216 ± 12.6 g
[1]; [15]
  % variation vs control paw: −21%
  % variation vs pm-drug threshold: 41%
  % variation vs vehicle-treated group: 32%
  Nociceptive threshold: 270 ± 11.6 g
[1]; [16]
  % variation vs control paw: −23%
  % variation vs pm-drug threshold: 44%
  % variation vs vehicle-treated group: 28%
  Nociceptive threshold: 262 ± 12.5 g
[1]; [17]
  % variation vs control paw: −23%
  % variation vs pre-drug threshold: 38%
  % variation vs vehicle-treated group: 9%
  Nociceptive threshold: 234 ± 15.5 g
[1]; [18]
  % variation vs control paw: −36%
  % variation vs pre-drug threshold: 1%
  % variation vs vehicle-treated group: −9%
  Nociceptive threshold: 194 ± 13.0 g
[1]; [19]
  % variation vs control paw: −27%
  % variation vs pre-drug threshold: 16%
  % variation vs vehicle-treated group: −1%
  Nociceptive threshold: 212 ± 15.8 g
[1]; [20]
  effect on nociceptive (pain) threshold of the affected paw, in words: dose-dependently restores the pain threshold lowered by chronic constriction injury
  time at which efficacy was apparent post-dose: 30 min
  time for which efficacy remained significant: 2 h
[1]; whatever the dose
  max effect: 59%
[2]
  patient-reported pain control: tolerable and improved at each visit
[3]; 10 mg/kg p.o.
  % antihypersensitivity activity: 26%
  Colonic distension threshold (mmHg): 30.3 ± 1.3 mmHg
[3]; 30 mg/kg p.o.
  % antihypersensitivity activity: 71%
  Colonic distension threshold (mmHg): 36.4 ± 1.3 mmHg
[3]; TNBS study, single PO administration
  untoward effects: No untoward effects

## NCC1(CC(=O)O)CCCCC1 [gabapentin]
[4]
  anti-hyperalgesic effect, typical range of non-opioid treatments: 40-50%

## CN1CC[C@]23c4c5ccc(O)c4O[C@H]2[C@@H](O)C=C[C@H]3[C@H]1C5.Cl [Morphine HCl, reference compound]
[1]; control paw, TO, 3 mg/kg s.c.
  Nociceptive threshold: 349 ± 11.1 g
[1]; [21]
  % variation vs control paw: −47%
  % variation vs vehicle-treated group: −8%
  Nociceptive threshold: 184 ± 11.9 g
[1]; [22]
  % variation vs control paw: −11%
  % variation vs pre-drug threshold: 212%
  % variation vs vehicle-treated group: 194%
  Nociceptive threshold: 576 ± 46.8 g
[1]; [23]
  % variation vs control paw: −6%
  % variation vs pre-drug threshold: 212%
  % variation vs vehicle-treated group: 159%
  Nociceptive threshold: 576 ± 28.8 g
[1]; [24]
  % variation vs control paw: −11%
  % variation vs pm-drug threshold: 110%
  % variation vs vehicle-treated group: 90%
  Nociceptive threshold: 387 ± 40.4 g
[1]; [25]
  % variation vs control paw: −19%
  % variation vs pre-drug threshold: 31%
  % variation vs vehicle-treated group: 13%
  Nociceptive threshold: 242 ± 19.0 g
